Measurements: patent publication US20220062418A1, “TUMOR TARGETING VITAMIN B12 DERIVATIVES FOR X-RAY ACTIVATED CHEMOTHERAPY” (THE TRUSTEES OF DARTMOUTH COLLEGE, priority 2018, published 2022)

Test system: tumor stroma
Assay: Losartan effect on stroma and perfusion in two tumor models
Format: in vivo
Settings: preliminary data
Excerpt: In an alternative embodiment, we add transcobalamin II to enhance uptake of cobalamin derivatives into tissue. […] Drug delivery is thought to be impeded by the dense stroma of pancreatic adenocarcinoma, and so delivery of cobalamin conjugates could be limited by this issue. […] In an alternative embodiment we treat with Losartan for 10 days prior to cobalamin-drug conjugate treatment to enhance the delivery of this platform to the PDAC tumor stroma.

CCCCc1nc(Cl)c(CO)n1Cc1ccc(-c2ccccc2-c2nn[nH]n2)cc1 [Losartan]
microvessel perfusion: increases in microvessel perfusion | stromal formation: reduce stromal formation
